Measurements from patent US5723139A, “Skin care compositions containing a polycyclic triterpene carboxylic acid and a retinoid” (Chesebrough-Pond's USA Co., Division of Conopco, Inc., priority 1996, dated 1998).
“Also recorded” adds a separate entry of the source.

What was measured:
[1] = system: human keratinocyte transglutaminase I (TGase I); experiment: Transglutaminase I ELISA in cultured keratinocytes, normalized to DNA content (Examples 2 and 3 procedure); type: cell-based; settings: for mean TGase/DNA × 10^5 ± s.d / effect on keratinocyte TG1 level / differentiation (in words) / activity at 1 µM / activity at 0.25 µM / activity at 0.0025 µM: 72 hours; for mean TGase/DNA × 10^5 ± s.d / activity at 1 µM / activity at 0.25 µM / activity at 0.0025 µM: n = 3; for activity at 1 µM / activity at 0.25 µM / activity at 0.0025 µM: Homo sapiens, Keratinocyte, % of control; for activity at 0.25 µM: Example 3, Table 3; for activity at 0.0025 µM: Example 2, Table 2; for effect on keratinocyte differentiation / transglutaminase I levels (in words, summary): summary of Examples 1-3
Description: Human keratinocytes, isolated from neonatal foreskin by trypsin treatment were grown in Dulbecco Modification Eagle (DME) Hams F12 (1:1) medium/10% fetal calf serum in the presence of irradiated 3T3 mouse fibroblasts for establishing dividing keratinocyte colonies. Cells were grown under the above condition until their second passage and kept frozen for future use. Frozen second passage keratinocytes were thawed and plated into the above medium and grown for five days before they were switched to a serum-free MCDB 153-based medium keratinocyte growth medium (KGM) from Clonetics Corporation, San Diego, Calif., containing 0.15 mM Ca, or keratinocyte serum-free media (KSFM) from GIBCO containing 0.09 mM Ca). On day 7, when the cells were 80-90% confluent, they were trypsinized and plated in the serum-free medium for the various experiments.
During the process of terminal differentiation in the epidermis, a 15 nm thick layer of protein, known as the cornified envelope (CE) is formed on the inner surface of the cell periphery. The CE is composed of numerous distinct proteins which have been cross-linked together by the formation of N^ε -(γ-glutamyl) lysine isodipeptide bonds catalyzed by the action of at least two different transglutaminases (TGases) expressed in the epidermis. TGase I is expressed in abundance in the differentiated layers of the epidermis, especially the granular layer, but is absent in the undifferentiated basal epidermis. Thus TGase I is a useful marker of epidermal keratinocyte differentiation with high TGase I levels indicating a more differentiated state. An ELISA based TGase I assay, using a TGase I antibody, was used to assess the state of differentiation of the cultured keratinocytes in the examples that follow.
Keratinocytes (cultured as described above) were plated in 96 well plates at a density of 3,000 cells per well in 200 μl of cell culture media. After incubation for four days, the media was changed to media containing test compounds (six replicates per test). The cells were cultured for a further 72 hours after which time the media was aspirated and the plates stored at -70° C. After the plates were removed from the freezer, the cells were further freezed fractured by freezing and thawing and then washed 3x with PBS. The cells were incubated for one hour at room temperature (R/T) with TBS/5% BSA buffer. Cells were then incubated with 100 μl of monoclonal anti-human transglutaminase (IgG) mouse antibody (primary antibody) obtained from Biomedical Technologies Inc. diluted 1:2000 in TBS/1% BSA buffer for two hours at 37° C., and then rinsed six times with wash buffer (TBS/1% BSA/0.05% Tween-20). Cells were next incubated with 100 μl of Fab fragment, peroxidase conjugated anti-mouse IgG antibody (secondary antibody) from Amersham diluted 1:4,000 in wash buffer for two hours at 37° C. and then rinsed three times with wash buffer and three times with PBS. Cells were incubated with substrate solution (4mg o-phenylene diamine and 3.3 μl 30% H2 O2 in 10 mL 0.1M citrate buffer, pH 5.0) for five minutes at R/T and in darkness (under aluminum foil). The reaction was stopped by the addition of 50 μl 4N H2SO4. The absorbance of samples was read at 492 nm in the plate reader. Out of the six replicates, four were treated with both antibodies, two were treated only with the secondary antibody (i.e., to determine the background binding of the enzyme conjugated antibody). Transglutaminase I levels were determined by subtracted background from the readings from each treatment and determining the mean s.d. for the replicates exposed to both antibodies.
The level of TGase-1 detected after treatment of the cells could be influenced by cell number, i.e., the greater the number of cells the greater the level of TGase-1 detected. The level of TGase-1 was normalized to DNA content of the cells in the same well thus eliminating variation due to differences in cell number. […]

[2] = system: human keratinocyte transglutaminase I (TGase I); experiment: Transglutaminase I ELISA in cultured keratinocytes, normalized to DNA content (Example 1 procedure); type: cell-based; settings: 2.5×10^-7 M, 2.5×10^-8 M and 2.5×10^-9 M, vs ethanol control
Description: Human keratinocytes, isolated from neonatal foreskin by trypsin treatment were grown in Dulbecco Modification Eagle (DME) Hams F12 (1:1) medium/10% fetal calf serum in the presence of irradiated 3T3 mouse fibroblasts for establishing dividing keratinocyte colonies. Cells were grown under the above condition until their second passage and kept frozen for future use. […] On day 7, when the cells were 80-90% confluent, they were trypsinized and plated in the serum-free medium for the various experiments.
During the process of terminal differentiation in the epidermis, a 15 nm thick layer of protein, known as the cornified envelope (CE) is formed on the inner surface of the cell periphery. […]
Keratinocytes (cultured as described above) were plated in 96 well plates at a density of 3,000 cells per well in 200 μl media. […] The absorbance of samples was read at 492 nm in the plate reader. […] TGase levels were determined by subtracting background from the readings from each treatment and determining mean±s.d. for the replicates exposed to both Ab.
The level of TGase-1 was normalized to DNA content of the cells in the same well thus eliminating variation due to differences in cell number. DNA quantitation is a particularly useful indicator of cell number, including keratinocyte cell number, because each cell has to all intents and purposes an identical genome and therefore an identical quantity of DNA. […]

skin keratinocytes = experiment: Thymidine incorporation / proliferation of skin keratinocytes; type: cell-based, human; settings: summary of Examples 1-3
[3] = Example 2, 2.5×10^-9 M retinoic acid or retinol, 10^-6 M glycyrrhizic acid
[4] = Example 3, 2.5×10^-7 M retinoic acid or retinol, 10^-6 M oleanolic acid

| Compound | mean TGase/DNA × 10^5 ± s.d ([1]; 10^-6 M, Table 2) | effect on keratinocyte TG1 level / differentiation (in words) [1, 3] | activity at 1 µM ([1]; 10^-6 M, Table 2) [%] | mean TGase/DNA × 10^5 ± s.d ([1]; 10^-6 M, Table 3) | effect on keratinocyte TG1 level / differentiation (in words) [1, 4] | activity at 1 µM ([1]; 10^-6 M, Table 3) [%] | effect on keratinocyte differentiation / transglutaminase level (in words) [2] | mean TGase/DNA × 10^5 ± s.d ([1]; 2.5 × 10^-7 M, Table 3) | mean TGase/DNA × 10^5 ± s.d ([1]; 2.5 × 10^-9 M, Table 2) | activity at 0.25 µM ([1]; 2.5 × 10^-7 M) [%] | activity at 0.0025 µM ([1]; 2.5 × 10^-9 M) [%] | effect on keratinocyte differentiation / transglutaminase I levels (in words, summary) [1] | effect on thymidine incorporation / keratinocyte proliferation (in words) (skin keratinocytes) |
| --- | --- | --- | --- | --- | --- | --- | --- | --- | --- | --- | --- | --- | --- |
| CC1(C)[C@@H](O[C@H]2O[C@H](C(=O)O)[C@@H](O)[C@H](O)[C@H]2O[C@@H]2O[C@H](C(=O)O)[C@@H](O)[C@H](O)[C@H]2O)CC[C@]2(C)[C@H]3C(=O)C=C4[C@@H]5C[C@@](C)(C(=O)O)CC[C@]5(C)CC[C@@]4(C)[C@]3(C)CC[C@@H]12 [Glycyrrhizic acid] | 11.98 ± 3.00 × 10^5 | no inhibitory effect on the keratinocyte TG1 level | 99 |  |  |  |  |  |  |  |  |  |  |
| CC1(C)CC[C@]2(C(=O)O)CC[C@]3(C)C(=CC[C@@H]4[C@@]5(C)CC[C@H](O)C(C)(C)[C@@H]5CC[C@]43C)[C@@H]2C1 [Oleanolic Acid, Oleanolic acid] |  |  |  | 20.95 ± 1.95 × 10^5 | only a very slight inhibitory effect on the keratinocyte TG1 level | 93 |  |  |  |  |  |  |  |
| CC1=C(/C=C/C(C)=C/C=C/C(C)=C/C(=O)O)C(C)(C)CCC1 [RA, Retinoic acid, reference compound] |  | very effective at repressing keratinocyte TG1 levels |  |  | very effective at repressing keratinocyte TG1 levels |  | decreased keratinocyte differentiation; also recorded: dose dependent | 9.95 ± 2.74 × 10^5 | 4.04 ± 1.23 × 10^5 | 44 | 33 | decreased transglutaminase I levels | increased thymidine incorporation |
| CC1=C(/C=C/C(C)=C/C=C/C(C)=C/CO)C(C)(C)CCC1 [ROH, Retinol] |  | less effective than retinoic acid |  |  | less effective than retinoic acid |  | dose dependent | 18.27 ± 3.30 × 10^5 | 8.29 ± 2.11 × 10^5 | 81 | 68 | significantly less effective than retinoic acid at inhibiting keratinocyte differentiation |  |
